Test system in the first data set: not listed separately
Briefly: Stability of aqueous solutions of the product. Type of data set: physicochemical. The following applies: neutral versus acidic aqueous solutions; acylated amidine function is hydrolyzed in acid. Here is the method: • The crude product obtained in g), t-BuO2C—CH2-(Boc)-(D)-Chg-Pyr-NH—CH -5-(2=NH(NH—COOCH3))-thioph (1.7 g, max. 2.3 mmol), was dissolved in a mixture of 45 ml of methylene chloride, 20 ml of dioxane and 45 ml of 4N hydrochloric acid in dioxane and stirred overnight with exclusion of moisture. The reaction solution was concentrated in vacuo, and the residue was codistilled with ether several times and subsequently extracted by stirring with ether. After drying in vacuo, 1.3 g of the title compound were obtained as a white solid product. […] FAB-MS (M+H^+): 506
In the case of `COC(=O)NC(=N)c1ccc(CNC(=O)C2C=CCN2C(=O)C(NCC(=O)O)C2CCCCC2)s1.Cl` (centres unmarked) [Example 1, N-(Hydroxycarbonylmethyl)-(D)-cyclohexylglycyl-3,4-dehydroproline 2-(N-methoxycarbonyl)amidino-5-thienylmethylamide hydrochloride], the “stability of aqueous solutions” value is reported as “distinctly more stable than acidic solutions”.

A further data set concerns human colon adenocarcinoma cell lines HT-29, Caco-2 and T84; IEC-18 cell line. Briefly: Transport experiments through intestinal cell layers on Transwell polycarbonate membranes (apical to basolateral). Type of data set: in vitro ADME. Also on record: key: +++: very good transport; ++: good transport; +: moderate transport. To be noted: transport rate from apical side through the cell layer to basolateral side, e.g. apical (pH 6.0) to basolateral (pH 8.0), e.g. 24 h; HPLC; divided into categories. The source says: Several in vitro models are available for studying intestinal absorption. Thus, the human colon adenocarcinoma cell lines HT-29, Caco-2 and T84 are routinely employed to investigate various intestinal transport processes (Madara et al., Am. J. Physiol. 1988, 254: G416–G423; K. L. Audus et al., Pharm. Res. 1990, 7, 435–451). The IEC-18 cell line has also shown itself to be a suitable model for investigating the permeability of hydrophilic substances through the intestinal membrane (Ma et al., J. Lab. Clin. Med. 1992 120, 329–41; Duizer et al., J. Contr. Rel. 1997 49, 39–49).
For the transport experiments (for materials and methods, see R. T. Borchardt, P. L. Smith, G. Wilson, Models for Assessing Drug Absorption and Metabolism, 1st edition, Plenum Press New York and London, 1996, chapter 2), the cells are cultivated on Transwell polycarbonate membranes for 17–24 days. The test chamber is arranged so that the membrane divides the apical from the basolateral compartment. Transport of the test substances from the apical side through the cell layer onto the basolateral side can be measured as a function of the pH gradient, for example apical (pH 6.0)→basolateral (pH 8.0).
After incubation of the cells with the test substance, samples are taken from the apical and basolateral sides after a defined time interval (e.g. 24 h). The content of test substance employed and any metabolites in each of the two compartments is determined by HPLC (comparison of retention times) and HPLC-MS (elucidation of metabolites) analyses. The transport rate is calculated.
It is possible on the basis of the results of these tests to divide test substances into the following categories: […]
With `CC(C)COC(=O)NC(=N)c1ccc(CNC(=O)C2C=CCN2C(=O)[C@H](NCC(=O)O)C2CCCCC2)s1.Cl` (some centres unmarked) [Example 2, N-(Hydroxycarbonylmethyl)-(D)-cyclohexylglycyl-3,4-dehydroproline 2-(N-isobutyloxycarbonyl)amidino-5-thienylmethylamide hydrochloride], the Transport result is listed as “+”.
The same measure, in the same setting: under `Cc1ccc(CON=C(N)c2ccc(CNC(=O)C3C=CCN3C(=O)[C@H](NCC(=O)O)C3CCCCC3)s2)cc1.Cl` (some centres unmarked) [Example 10, N-(Hydroxycarbonylmethyl)-(D)-cyclohexylglycyl-3.4-dehydroproline 2-(N-(p-methylbenzyloxy)amidino)-5-thienylmethylamide hydrochloride] stands “+”; under `CCOC(=O)CN[C@@H](C(=O)N1CC=CC1C(=O)NCc1ccc(C(N)=NOCc2ccc(C)cc2)s1)C1CCCCC1.Cl` (some centres unmarked) [Example 11, N-(Ethoxycarbonylmethyl)-(D)-cyclohexylglycyl-3.4-dehydroproline 2-(N-(p-methylbenzyloxy)amidino)-5-thienylmethylamide hydrochloride], “+++”.
Regarding `CCCCCCCCCCCCCCCCOC(=O)CN[C@H](CC1CCCCC1)C(=O)N1CC=CC1C(=O)NCc1nc(C(=N)N)cs1.Cl.Cl` (some centres unmarked) [Example 21, N-(Hexadecyloxycarbonylmethyl)-(D)-cyclohexylalanyl-3,4-dehydroproline 4-amidino-2-thiazolylmethylamide dihydrochloride], the Transport result is recorded as “++”.
Same read-out and setting: under `CCCCCCCCCCCCCCCCOC(=O)CN[C@H](CC1CCCCC1)C(=O)N1CC=CC1C(=O)NCc1nc(C(N)=NO)cs1.Cl` (some centres unmarked) [Example 25, N-(Hexadecyloxycarbonylmethyl)-(D)-cyclohexylalanyl-3,4-dehydroproline 4-hydroxyamidino-2-thiazolylmethylamide hydrochloride] stands “++”.
Turning to `CCCCCCOC(=O)CN[C@H](CC1CCCCC1)C(=O)N1CC=CC1C(=O)NCc1nc(C(N)=NO)cs1.Cl` (some centres unmarked) [Example 29, N-(Hexyloxycarbonylmethyl)-(D)-cyclohexylalanyl-3,4-dehydroproline 4-hydroxyamidino-2-thiazolylmethylamide hydrochloride], the Transport result is recorded as “++”.
For `CC(C)CCOC(=O)CN[C@H](CC1CCCCC1)C(=O)N1CC=CC1C(=O)NCc1nc(C(N)=NO)cs1.Cl` (some centres unmarked) [Example 33, N-(3,3-Dimethylpropyloxycarbonylmethyl)-(D)-cyclohexylalanyl-3,4-dehydroproline 4-hydroxyamidino-2-thiazolylmethylamide hydrochloride], the Transport entry is given as “+++”.

The values are drawn from patent US7144902B1, “Prodrugs of thrombin inhibitors” (Abbott GmbH & Co. KG, priority 1999, dated 2006).
